Drawing on patent publication US9951077B2, “Aminopyridazinone compounds as protein kinase inhibitors” (ETERNITY BIOSCIENCE INC., priority 2014, dated 2018), this text covers IC50 for 27 compounds.

The term IC50 denotes the midpoint of a concentration-inhibition curve.

Btk, sequence (Q06187 whole entry): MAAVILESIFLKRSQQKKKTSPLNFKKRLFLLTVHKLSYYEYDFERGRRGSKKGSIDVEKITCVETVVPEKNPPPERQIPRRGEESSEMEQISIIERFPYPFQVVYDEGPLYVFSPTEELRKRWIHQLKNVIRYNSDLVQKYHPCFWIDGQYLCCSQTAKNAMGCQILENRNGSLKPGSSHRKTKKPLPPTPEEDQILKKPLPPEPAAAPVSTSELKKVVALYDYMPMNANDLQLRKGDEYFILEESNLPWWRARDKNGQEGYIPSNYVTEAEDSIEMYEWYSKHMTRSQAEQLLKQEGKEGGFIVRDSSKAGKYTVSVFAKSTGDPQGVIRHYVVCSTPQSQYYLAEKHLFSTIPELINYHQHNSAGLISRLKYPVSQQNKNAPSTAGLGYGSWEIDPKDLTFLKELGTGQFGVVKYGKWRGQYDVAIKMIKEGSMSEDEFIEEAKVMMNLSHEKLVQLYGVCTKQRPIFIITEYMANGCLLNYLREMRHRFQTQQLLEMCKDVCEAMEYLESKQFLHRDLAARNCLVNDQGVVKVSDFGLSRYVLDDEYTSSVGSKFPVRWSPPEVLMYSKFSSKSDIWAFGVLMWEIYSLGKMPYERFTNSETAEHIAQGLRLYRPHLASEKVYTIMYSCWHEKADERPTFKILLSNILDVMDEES

This experiment deals with Btk (Homo sapiens (Human), UniProt Q06187). Nature of the experiment: Btk kinase assay (ADP-Glo). The class given is biochemical. The following applies: ATP 1.2 μM, 60 minutes, room temperature; read-out: BTK enzyme IC50. On the procedure:
The Btk kinase assay was performed using a ADP-Glo Btk kinase assay kit purchased from Promega (Madison, Wis.). The assay was conducted according to the protocols provided in the assay kit. In brief, the enzyme reaction was carried out in the kinase reaction buffer containing Btk (2 ng/μl), ATP (1.2 μM), poly GT peptide (0.3 μM), DTT (40 nM), MnCl2 (1.4 mM), and 1×kinase buffer (included in the kit) in the presence or absence of the tested articles at various concentrations in 384-well plate at room temperature (22±1° C.) for 60 minutes. The final reaction volume for each reaction was 10 μl. Then, 4 μl of ADP-Glo reagent (included in the kit) was added into the reaction and the plate was further incubated for another 40 minutes to terminate the reaction and deplete the remaining ATP. Finally, 10 μl of the kinase detection reagent was added into each reaction to simultaneously convert ADP to ATP and allow the newly synthesized ATP to be measured by a plate-reading luminometer (Victor X5 2030 multilabel reader, PerkinElmer). IC50 value was calculated using appropriate programs in GraphPad Prism by plotting the logarithm of the concentration versus percent inhibition as compared with a vehicle (DMSO) control.
As to `CN(C)C/C=C/C(=O)N1CCC(Cn2cc(-c3ccc(Oc4ccccc4)cc3)c3c(N)n[nH]c(=O)c32)C1` (stereo not drawn) [Example 43, 4-amino-1-[[1-[(E)-4-(dimethylamino)but-2-enoyl]pyrrolidin-3-yl]methyl]-3-(4-phenoxyphenyl)-6H-pyrrolo[2,3-d]pyridazin-7-one], the 50% inhibitory concentration (IC50) fell in the range of 10 to 1000 nM.
For `CCC(=O)N1CCC[C@@H](n2cc(-c3ccc(Oc4c(F)cccc4F)cc3)c3c(N)n[nH]c(=O)c32)C1` [Example 115, (R)-4-amino-3-(4-(2,6-difluorophenoxy)phenyl)-1-(1-propionylpiperidin-3-yl)-1H-pyrrolo[2,3-d]pyridazin-7(6H)-one] the value was 10 to 1000 nM; for `Nc1n[nH]c(=O)c2c1c(-c1ccc(Oc3ccccc3)cc1)cn2[C@@H]1CCCN(C(=O)/C=C/CN2CCC2)C1` [Example 33, 4-amino-1-[(3R)-1-[(E)-4-(azetidin-1-yl)but-2-enoyl]-3-piperidyl]-3-(4-phenoxyphenyl)-6H-pyrrolo[2,3-d]pyridazin-7-one], not above 10 nM.
Turning to `CN(C)C/C=C/C(=O)N1CCC[C@@H](n2c(F)c(-c3ccc(Oc4ccccc4)cc3)c3c(N)n[nH]c(=O)c32)C1` [Example 82, 4-amino-1-[(3R)-1-[(E)-4-(dimethylamino)but-2-enoyl]-3-piperidyl]-2-fluoro-3-(4-phenoxyphenyl)-6H-pyrrolo[2,3-d]pyridazin-7-one], the IC50 was not above 10 nM.
The figure for `CCC(=O)N1CCCC(n2cc(-c3ccc(Oc4ccccc4)cc3)c3c(N)n[nH]c(=O)c32)C1` (stereo not drawn) [Example 19, 4-amino-3-(4-phenoxyphenyl)-1-(1-propionylpiperidin-3-yl)-1H-pyrrolo[2,3-d]pyridazin-7(6H)-one] is 10 to 1000 nM; for `CN(C)C/C=C/C(=O)N1CCCC(n2cc(-c3ccc(Oc4cccc(F)c4)cc3)c3c(N)n[nH]c(=O)c32)C1` (stereo not drawn) [Example 63, 4-amino-1-[1-[(E)-4-(dimethylamino)but-2-enoyl]-3-piperidyl]-3-[4-(3-fluorophenoxy)phenyl]-6H-pyrrolo[2,3-d]pyridazin-7-one] it is not above 10 nM; for `C=CC(=O)Nc1cccc(-n2cc(-c3ccc(OC)c(Cl)c3)c3c(N)n[nH]c(=O)c32)c1` [Example 89, N-(3-(4-amino-3-(3-chloro-4-methoxyphenyl)-7-oxo-6,7-dihydro-1H-pyrrolo[2,3-d]pyridazin-1-yl)phenyl)acrylamide] it is 10 to 1000 nM.
For `CC#CC(=O)N1C[C@H](OC)[C@@H](n2cc(-c3ccc(Oc4ccccc4F)cc3)c3c(N)n[nH]c(=O)c32)C1` [Example 98, 4-amino-1-((3S,4S)-1-(but-2-ynoyl)-4-methoxypyrrolidin-3-yl)-3-(4-(2-fluorophenoxy)phenyl)-1H-pyrrolo[2,3-d]pyridazin-7(6H)-one], the IC50 was 10 to 1000 nM.
For `CN(C)C/C=C/C(=O)N1CCC[C@@H](n2cc(-c3ccc(Oc4c(F)cccc4Cl)cc3)c3c(N)n[nH]c(=O)c32)C1` [Example 79, 4-amino-3-[4-(2-chloro-6-fluoro-phenoxy)phenyl]-1-[(3R)-1-[(E)-4-(dimethylamino)but-2-enoyl]-3-piperidyl]-6H-pyrrolo[2,3-d]pyridazin-7-one] the value was not above 10 nM; for `C=CC(=O)N1CCC[C@H]1Cn1cc(-c2ccc(Oc3ccccc3)cc2)c2c(N)n[nH]c(=O)c21` [Example 6, 4-amino-3-(4-phenoxyphenyl)-1-[[(2S)-1-prop-2-enoylpyrrolidin-2-yl]methyl]-6H-pyrrolo[2,3-d]pyridazin-7-one], 10 to 1000 nM; for `CN(C)CC#CC(=O)N1CC[C@@H](n2cc(-c3ccc(Oc4ccccc4F)cc3)c3c(N)n[nH]c(=O)c32)C1` [Example 99, (R)-4-amino-1-(1-(4-(dimethylamino)but-2-ynoyl)pyrrolidin-3-yl)-3-(4-(2-fluorophenoxy)phenyl)-1H-pyrrolo[2,3-d]pyridazin-7(6H)-one], not above 10 nM.
`CN(C)C/C=C/C(=O)N1CCC[C@@H](n2cc(-c3ccc(Oc4ccccc4)cc3F)c3c(N)n[nH]c(=O)c32)C1` [Example 77, 4-amino-1-[(3R)-1-[(E)-4-(dimethylamino)but-2-enoyl]-3-piperidyl]-3-(2-fluoro-4-phenoxy-phenyl)-6H-pyrrolo[2,3-d]pyridazin-7-one]: the IC50 is not above 10 nM.
For `CC#CC(=O)N1CC[C@@H](n2cc(-c3ccc(Oc4ccccc4Cl)cc3)c3c(N)n[nH]c(=O)c32)C1` [Example 96, (R)-4-amino-1-(1-(but-2-ynoyl)pyrrolidin-3-yl)-3-(4-(2-chlorophenoxy)phenyl)-1H-pyrrolo[2,3-d]pyridazin-7(6H)-one] the value was 10 to 1000 nM; for `C=CC(=O)N1CCC[C@@H](n2c(F)c(-c3ccc(Oc4ccccc4)cc3)c3c(N)n[nH]c(=O)c32)C1` [Example 81, (R)-1-(1-acryloylpiperidin-3-yl)-4-amino-2-fluoro-3-(4-phenoxyphenyl)-1H-pyrrolo[2,3-d]pyridazin-7(6H)-one], 10 to 1000 nM; for `CCCC(=O)N1CC[C@@H](n2cc(-c3ccc(Oc4c(F)cccc4F)cc3)c3c(N)n[nH]c(=O)c32)C1` [Example 118, (R)-4-amino-1-(1-butyrylpyrrolidin-3-yl)-3-(4-(2,6-difluorophenoxy)phenyl)-1H-pyrrolo[2,3-d]pyridazin-7(6H)-one], 1000 to 100000 nM.
For `CC#CC(=O)NC1CCC(n2cc(-c3ccc(Oc4ccccc4F)cc3)c3c(N)n[nH]c(=O)c32)C1` (stereo not drawn) [Example 100, N-(3-(4-amino-3-(4-(2-fluorophenoxy)phenyl)-7-oxo-6,7-dihydro-1H-pyrrolo[2,3-d]pyridazin-1-yl)cyclopentyl)but-2-ynamide] the value was 10 to 1000 nM.
In the case of `C=CC(=O)N1CCC(Cn2cc(-c3ccc(Oc4ccccc4)cc3)c3c(N)n[nH]c(=O)c32)C1` (stereo not drawn) [Example 8, 4-amino-3-(4-phenoxyphenyl)-1-[(1-prop-2-enoylpyrrolidin-3-yl)methyl]-6H-pyrrolo[2,3-d]pyridazin-7-one], the half-maximal inhibitory concentration (IC50) fell in the range of 10 to 1000 nM.
With `C=CC(=O)Nc1cccc(-n2cc(-c3ccc(Oc4ccccc4F)cc3)c3c(N)n[nH]c(=O)c32)c1` [Example 91, N-(3-(4-amino-3-(4-(2-fluorophenoxy)phenyl)-7-oxo-6,7-dihydro-1H-pyrrolo[2,3-d]pyridazin-1-yl)phenyl)acrylamide], the IC50 is 10 to 1000 nM.
The figure for `C=CC(=O)N1CCCC(n2cc(-c3ccc(OC)c(Cl)c3)c3c(N)n[nH]c(=O)c32)C1` (stereo not drawn) [Example 53, 1-(1-acryloylpiperidin-3-yl)-4-amino-3-(3-chloro-4-methoxyphenyl)-1H-pyrrolo[2,3-d]pyridazin-7(6H)-one] is not above 10 nM; for `C=CC(=O)N1CCCC(n2cc(-c3ccc(Oc4cccc(F)c4)cc3)c3c(N)n[nH]c(=O)c32)C1` (stereo not drawn) [Example 62, 1-(1-acryloylpiperidin-3-yl)-4-amino-3-(4-(3-fluorophenoxy)phenyl)-1H-pyrrolo[2,3-d]pyridazin-7(6H)-one] it is 10 to 1000 nM; for `CCN(CC)C/C=C/C(=O)N1CCC[C@@H](n2cc(-c3ccc(Oc4ccccc4)cc3)c3c(N)n[nH]c(=O)c32)C1` [Example 27, 4-amino-1-[(3R)-1-[(E)-4-(diethylamino)but-2-enoyl]-3-piperidyl]-3-(4-phenoxyphenyl)-6H-pyrrolo[2,3-d]pyridazin-7-one] it is not above 10 nM.
Regarding `CCN(C/C=C/C(=O)N1CCC[C@@H](n2cc(-c3ccc(Oc4ccccc4)cc3)c3c(N)n[nH]c(=O)c32)C1)C1CC1` [Example 30, 4-amino-1-[(3R)-1-[(E)-4-[cyclopropyl(ethyl)amino]but-2-enoyl]-3-piperidyl]-3-(4-phenoxyphenyl)-6H-pyrrolo[2,3-d]pyridazin-7-one], the IC50 lay in the range of 10 to 1000 nM.
For `CN(C)C/C=C/C(=O)N1CCC[C@H]1Cn1cc(-c2ccc(Oc3ccccc3)cc2)c2c(N)n[nH]c(=O)c21` [Example 41, 4-amino-1-[[(2S)-1-[(E)-4-(dimethylamino)but-2-enoyl]pyrrolidin-2-yl]methyl]-3-(4-phenoxyphenyl)-6H-pyrrolo[2,3-d]pyridazin-7-one] the value was 10 to 1000 nM; for `C=CC(=O)N1CC(n2cc(-c3ccc(Oc4ccccc4)cc3)c3c(N)n[nH]c(=O)c32)C1` [Example 5, 4-amino-3-(4-phenoxyphenyl)-1-(1-prop-2-enoylazetidin-3-yl)-6H-pyrrolo[2,3-d]pyridazin-7-one], 10 to 1000 nM; for `COc1cc(-c2cn(C3CCCN(C(=O)/C=C/CN(C)C)C3)c3c(=O)[nH]nc(N)c23)ccc1Oc1cccc(Cl)c1` (stereo not drawn) [Example 69, 4-amino-3-[4-(3-chlorophenoxy)-3-methoxy-phenyl]-1-[1-[(E)-4-(dimethylamino)but-2-enoyl]-3-piperidyl]-6H-pyrrolo[2,3-d]pyridazin-7-one], not above 10 nM.
Consider `C=CC(=O)N1CCC[C@@H](n2cc(-c3ccc(Oc4c(F)cccc4Cl)cc3)c3c(N)n[nH]c(=O)c32)C1` [Example 78, (R)-1-(1-acryloylpiperidin-3-yl)-4-amino-3-(4-(2-chloro-6-fluorophenoxy)phenyl)-1H-pyrrolo[2,3-d]pyridazin-7(6H)-one], for which the IC50 was not above 10 nM.
The figure for `C=CC(=O)N1CCCC(n2cc(-c3ccc(OC)cc3)c3c(N)n[nH]c(=O)c32)C1` (stereo not drawn) [Example 51, 1-(1-acryloylpiperidin-3-yl)-4-amino-3-(4-methoxyphenyl)-1H-pyrrolo[2,3-d]pyridazin-7(6H)-one] is not above 10 nM.
